# Experimental data published in paper PMC9268484, “New Flavonoid Derivatives from Melodorum fruticosum and Their α-Glucosidase Inhibitory and Cytotoxic Activities” (Molecules, 2022).
# Where two headings read alike, the source gives them in different places.
# Columns and labels:
# [1] = MTT cytotoxicity assay, KB; type: cell-based; conditions: human, means ± SD of three replicates
# Protocol: (§1) The cancer cells were cultured in Dulbecco’s Modified Eagle’s Medium with 10% Fetal Bovine Serum, 1% penicillin and streptomycin, and 1% L-glutamine at 37 °C in a 5% CO2 environment. The tested compounds were added at concentrations ranging from 0.5 to 128 μg/mL by dissolving in DMSO (20 mg/mL) and incubated for a further 72 h in the identical condition. After the treatment, each well was filled with an MTT solution (10 μL, 5 mg/mL) of phosphate buffer, which was left to stand for 4 h until intracellular purple formazan crystals appeared. The MTT was removed and a 100 μL DMSO solution was added. The blank contained only a medium without any cells and MTT, as well as the solubilizing solution. The solution’s optical density (OD) at 540 nm was recorded on a BIOTEK reader. All experiments were carried out in triplicate for three independent experiments. IC50 values were computed graphically using inhibition curves.
# [2] = MTT cytotoxicity assay, Hep G2; type: cell-based; conditions: human, means ± SD of three replicates
# Protocol: as §1
# [3] = MTT cytotoxicity assay, MCF7; type: cell-based; conditions: human, means ± SD of three replicates
# Protocol: as §1
# α-glucosidase = system: α-glucosidase; set-up: method as in doi:10.1016/S0031-9422(99)00314-3; conditions: cited from earlier work
# MCF7 cell line = conditions: cited from earlier work
# normal Vero cell line = system: normal Vero cell line; set-up: method as in doi:10.1007/s00044-017-1843-8; conditions: cited from earlier work
# KB cell line = system: KB cell line; set-up: method as in doi:10.1016/j.phytol.2012.09.007; conditions: read-out: Cytotoxicity IC50, KB (previous research); cited from earlier work
# Hep G2 cell line = system: Hep G2 cell line; set-up: method as in PMID 29116937, doi:10.1016/j.phytol.2019.05.003; conditions: read-out: Cytotoxicity IC50, Hep G2 (previous research); cited from earlier work
# [4] = MCF-7 cells (human breast adenocarcinoma)
# [5] = read-out: Cytotoxicity IC50, MCF7 (previous research)
compound,measurement,setting,value
"O=C1C[C@@H](c2ccccc2)Oc2cc(O)cc(O)c21 [Compound 7, pinocembrin]",IC50 at 72 h,[1]; KB cells (human epidermoid carcinoma),> 100 µM
same,IC50 at 72 h,[2]; Hep G2 cells (human hepatocellular carcinoma),> 100 µM
same,IC50 at 72 h,[3]; [4],> 100 µM
same,"α-Glucosidase inhibition (previous research, in words)",α-glucosidase,no α-glucosidase inhibition
same,IC50,"MCF7 cell line; 48 h, read-out: Cytotoxicity IC50, MCF7, 48 h",226 µM
same,IC50,"MCF7 cell line; 72 h, read-out: Cytotoxicity IC50, MCF7, 72 h",108 µM
same,Cytotoxicity against normal Vero cell line,normal Vero cell line,no cytotoxicity
"COc1cc(O)c2c(=O)cc(-c3ccccc3)oc2c1 [Compound 4, tectochrysin]","α-Glucosidase inhibition (previous research, in words)",α-glucosidase,no α-glucosidase inhibition
same,IC50,KB cell line,55.3 µM
same,IC50,MCF7 cell line; [5],16.7 µM
"O=c1cc(-c2ccccc2)oc2cc(O)cc(O)c12 [Compound 5, chrysin]",IC50,α-glucosidase; read-out: α-Glucosidase inhibition IC50 (previous research),5.7 µM
same,IC50,Hep G2 cell line,50.6 µM
same,IC50,MCF7 cell line; [5],37.2 µM
same,Cytotoxicity against normal Vero cell line,normal Vero cell line,no cytotoxicity
"COc1cc2c(c(O)c1OC)C(=O)C[C@@H](c1ccccc1)O2 [Compound 6, onysilin]",IC50 at 72 h,[1],> 100 µM
same,IC50 at 72 h,[2],> 100 µM
same,IC50 at 72 h,[3],> 100 µM
"CC(C)=CCc1cc2c(c(O)c1O)C(=O)C[C@@H](c1ccccc1)O2 [Compound 3, melodorone C]",IC50 at 72 h,[3]; [4],> 100 µM
